Here are results for 5 molecules from ChEMBL document CHEMBL1156106 (J Med Chem, 2009).

For test [1], the system named is Rattus norvegicus. As to the kind of experiment: Effect on behavioural activity in rat assessed as cocaine-induced lever response at 50 mg/kg, ip pretreated with cocaine for 50 mins by drug-discrimination studies. The format is functional. The conditions noted are these: route intraperitoneal.
Test [2] concerns Rattus norvegicus. As to the kind of experiment: Effect on behavioural activity in rat assessed as cocaine-induced lever response at 100 mg/kg, ip pretreated with cocaine for 50 mins by drug-discrimination studies. Format: functional. The conditions noted are these: route intraperitoneal.
In test [3] the test system is Mus musculus. The test can be described thus: Antidepressant activity in ip dosed mouse assessed as stimulation of locomotor activity. The format is functional.
In test [4] the test system is Mus musculus. As to the kind of experiment: Antidepressant activity in ip dosed mouse assessed as stimulation of locomotor activity relative to cocaine. The format is functional.
Test [5] deals with Mus musculus. As to the kind of experiment: Antidepressant activity in ip dosed mouse assessed as time to reach peak stimulation of locomotor activity. The format is functional.
The subject of test [6] is Mus musculus. As to the kind of experiment: Antidepressant activity in ip dosed mouse assessed as duration of locomotor activity. Format: functional.
Test [7] addresses Sodium-dependent noradrenaline transporter (Homo sapiens, UniProt P23975). As to the kind of experiment: Displacement of [125I]RTI55 from cloned human NET expressed in HEK293 cells. Format: cell-based.
Test [8] concerns Rattus norvegicus. The test can be described thus: Effect on behavioural activity in rat assessed as cocaine-induced lever response at 10 mg/kg, ip pretreated with cocaine for 80 mins by drug-discrimination studies. Format: functional. The conditions noted are these: route intraperitoneal.
In test [9] the test system is Rattus norvegicus. As to the kind of experiment: Effect on behavioural activity in rat assessed as cocaine-induced lever response at 25 mg/kg, ip pretreated with cocaine for 80 mins by drug-discrimination studies. Format: functional. Conditions: route intraperitoneal.
Test [10] concerns Rattus norvegicus. As to the kind of experiment: Effect on behavioural activity in rat assessed as cocaine-induced lever response at 50 mg/kg, ip pretreated with cocaine for 80 mins by drug-discrimination studies. The format is functional. Conditions: route intraperitoneal.
Test [11] concerns Rattus norvegicus. The test can be described thus: Effect on behavioural activity in rat assessed as cocaine-induced lever response at 100 mg/kg, ip pretreated with cocaine for 80 mins by drug-discrimination studies. The format is functional. The conditions noted are these: route intraperitoneal.
In test [12] the target is T1, Sodium-dependent serotonin transporter (Homo sapiens, UniProt P31645). As to the kind of experiment: Inhibition of [3H]serotonin reuptake at human SERT expressed in HEK293 cells. The format is cell-based.
The subject of test [13] is Rattus norvegicus. As to the kind of experiment: Effect on behavioural activity in rat assessed as cocaine-induced lever response at 25 mg/kg, ip pretreated with cocaine for 240 mins by drug-discrimination studies. Format: functional. Conditions: route intraperitoneal.
Test [14] relates to Rattus norvegicus. The test can be described thus: Effect on behavioural activity in rat assessed as cocaine-induced lever response at 50 mg/kg, ip pretreated with cocaine for 240 mins by drug-discrimination studies. The format is functional. Conditions: route intraperitoneal.
Test [15] relates to Rattus norvegicus. The test can be described thus: Effect on behavioural activity in ip dosed rat assessed as cocaine-induced lever response pretreated with cocaine by drug-discrimination studies. The format is functional.
The subject of test [16] is Rattus norvegicus. The test can be described thus: Effect on behavioural activity in rat assessed as cocaine-induced lever response at 2.5 mg/kg, po pretreated with cocaine for 45 mins by drug-discrimination studies. Format: functional.
Test [17] relates to Rattus norvegicus. As to the kind of experiment: Effect on behavioural activity in rat assessed as cocaine-induced lever response at 2.5 mg/kg, po pretreated with cocaine for 90 mins by drug-discrimination studies. Format: functional.
In test [18] the test system is Rattus norvegicus. As to the kind of experiment: Effect on behavioural activity in rat assessed as cocaine-induced lever response at 2.5 mg/kg, po pretreated with cocaine for 180 mins by drug-discrimination studies. Format: functional.
Test [19] concerns Rattus norvegicus. The test can be described thus: Effect on behavioural activity in rat assessed as cocaine-induced lever response at 2.5 mg/kg, po pretreated with cocaine for 360 mins by drug-discrimination studies. The format is functional.
Test [20] has as its system Rattus norvegicus. As to the kind of experiment: Effect on behavioural activity in rat assessed as cocaine-induced lever response at 5 mg/kg, po pretreated with cocaine for 45 mins by drug-discrimination studies. Format: functional.
Test [21] has as its system Rattus norvegicus. As to the kind of experiment: Effect on behavioural activity in rat assessed as cocaine-induced lever response at 5 mg/kg, po pretreated with cocaine for 90 mins by drug-discrimination studies. Format: functional.
Test [22] relates to Rattus norvegicus. The test can be described thus: Effect on behavioural activity in rat assessed as cocaine-induced lever response at 5 mg/kg, po pretreated with cocaine for 180 mins by drug-discrimination studies. The format is functional.
The test system of test [23] is Rattus norvegicus. As to the kind of experiment: Effect on behavioural activity in rat assessed as cocaine-induced lever response at 5 mg/kg, po pretreated with cocaine for 360 mins by drug-discrimination studies. Format: functional.
Test [24] has as its system Rattus norvegicus. As to the kind of experiment: Effect on behavioural activity in rat assessed as cocaine-induced lever response at 10 mg/kg, po pretreated with cocaine for 45 mins by drug-discrimination studies. Format: functional.
The subject of test [25] is Rattus norvegicus. As to the kind of experiment: Effect on behavioural activity in rat assessed as cocaine-induced lever response at 10 mg/kg, po pretreated with cocaine for 90 mins by drug-discrimination studies. Format: functional.
Test [26] concerns Rattus norvegicus. The test can be described thus: Effect on behavioural activity in rat assessed as cocaine-induced lever response at 10 mg/kg, po pretreated with cocaine for 180 mins by drug-discrimination studies. Format: functional.
The subject of test [27] is Rattus norvegicus. As to the kind of experiment: Effect on behavioural activity in rat assessed as cocaine-induced lever response at 10 mg/kg, po pretreated with cocaine for 360 mins by drug-discrimination studies. The format is functional.
Test [28] relates to Rattus norvegicus. As to the kind of experiment: Effect on behavioural activity in rat assessed as cocaine-induced lever response at 25 mg/kg, po pretreated with cocaine for 45 mins by drug-discrimination studies. The format is functional.
Test [29] deals with Rattus norvegicus. As to the kind of experiment: Effect on behavioural activity in rat assessed as cocaine-induced lever response at 25 mg/kg, po pretreated with cocaine for 90 mins by drug-discrimination studies. The format is functional.
The test system of test [30] is Rattus norvegicus. The test can be described thus: Effect on behavioural activity in rat assessed as cocaine-induced lever response at 25 mg/kg, po pretreated with cocaine for 180 mins by drug-discrimination studies. Format: functional.
The subject of test [31] is Rattus norvegicus. The test can be described thus: Effect on behavioural activity in rat assessed as cocaine-induced lever response at 25 mg/kg, po pretreated with cocaine for 360 mins by drug-discrimination studies. The format is functional.
Test [32] deals with Rattus norvegicus. The test can be described thus: Effect on behavioural activity in rat assessed as cocaine-induced lever response at 50 mg/kg, po pretreated with cocaine for 45 mins by drug-discrimination studies. The format is functional.
Test [33] relates to Rattus norvegicus. As to the kind of experiment: Effect on behavioural activity in rat assessed as cocaine-induced lever response at 50 mg/kg, po pretreated with cocaine for 90 mins by drug-discrimination studies. Format: functional.
Test [34] relates to Rattus norvegicus. As to the kind of experiment: Effect on behavioural activity in rat assessed as cocaine-induced lever response at 50 mg/kg, po pretreated with cocaine for 180 mins by drug-discrimination studies. Format: functional.
Test [35] deals with Rattus norvegicus. The test can be described thus: Effect on behavioural activity in rat assessed as cocaine-induced lever response at 50 mg/kg, po pretreated with cocaine for 360 mins by drug-discrimination studies. Format: functional.
Test [36] relates to Rattus norvegicus. The test can be described thus: Effect on behavioural activity in rat assessed as cocaine-induced lever response at 100 mg/kg, po pretreated with cocaine for 45 mins by drug-discrimination studies. The format is functional.
Test [37] deals with Rattus norvegicus. The test can be described thus: Effect on behavioural activity in rat assessed as cocaine-induced lever response at 100 mg/kg, po pretreated with cocaine for 90 mins by drug-discrimination studies. The format is functional.
The subject of test [38] is Rattus norvegicus. As to the kind of experiment: Effect on behavioural activity in rat assessed as cocaine-induced lever response at 100 mg/kg, po pretreated with cocaine for 180 mins by drug-discrimination studies. Format: functional.
The target in test [39] is T1, Sodium-dependent serotonin transporter. The test can be described thus: biochemical. The format is cell-based, HEK293.
Test [40] has as its system Rattus norvegicus. As to the kind of experiment: Effect on behavioural activity in rat assessed as cocaine-induced lever response at 100 mg/kg, po pretreated with cocaine for 360 mins by drug-discrimination studies. Format: functional.
The test system of test [41] is Rattus norvegicus. As to the kind of experiment: Effect on behavioural activity in po dosed rat assessed as cocaine-induced lever response pretreated with cocaine by drug-discrimination studies. The format is functional.
In test [42] the test system is Rattus norvegicus. As to the kind of experiment: Effect on behavioural activity in rat assessed as cocaine-induced lever response at 2.5 mg/kg, ip pretreated with cocaine for 30 mins by drug-discrimination studies. Format: functional. Conditions: route intraperitoneal.
The subject of test [43] is Rattus norvegicus. As to the kind of experiment: Effect on behavioural activity in rat assessed as cocaine-induced lever response at 10 mg/kg, ip pretreated with cocaine for 30 mins by drug-discrimination studies. The format is functional. The conditions noted are these: route intraperitoneal.
Test [44] relates to Rattus norvegicus. As to the kind of experiment: Effect on behavioural activity in rat assessed as cocaine-induced lever response at 50 mg/kg, ip pretreated with cocaine for 30 mins by drug-discrimination studies. Format: functional. The conditions noted are these: route intraperitoneal.
The target of test [45] is Sodium-dependent dopamine transporter (Homo sapiens, UniProt Q01959). As to the kind of experiment: Displacement of [125I]RTI55 from cloned human DAT expressed in HEK293 cells. The format is cell-based. Background: Displacement assays read how much labelled ligand stays bound in the presence of the test substance.
Test [46] relates to Rattus norvegicus. The test can be described thus: Effect on behavioural activity in rat assessed as cocaine-induced lever response at 10 mg/kg, ip pretreated with cocaine for 45 mins by drug-discrimination studies. Format: functional. The conditions noted are these: route intraperitoneal.
Test [47] concerns Rattus norvegicus. The test can be described thus: Effect on behavioural activity in rat assessed as cocaine-induced lever response at 100 mg/kg, ip pretreated with cocaine for 45 mins by drug-discrimination studies. Format: functional. The conditions noted are these: route intraperitoneal.

Chain of Sodium-dependent noradrenaline transporter (P23975 whole entry): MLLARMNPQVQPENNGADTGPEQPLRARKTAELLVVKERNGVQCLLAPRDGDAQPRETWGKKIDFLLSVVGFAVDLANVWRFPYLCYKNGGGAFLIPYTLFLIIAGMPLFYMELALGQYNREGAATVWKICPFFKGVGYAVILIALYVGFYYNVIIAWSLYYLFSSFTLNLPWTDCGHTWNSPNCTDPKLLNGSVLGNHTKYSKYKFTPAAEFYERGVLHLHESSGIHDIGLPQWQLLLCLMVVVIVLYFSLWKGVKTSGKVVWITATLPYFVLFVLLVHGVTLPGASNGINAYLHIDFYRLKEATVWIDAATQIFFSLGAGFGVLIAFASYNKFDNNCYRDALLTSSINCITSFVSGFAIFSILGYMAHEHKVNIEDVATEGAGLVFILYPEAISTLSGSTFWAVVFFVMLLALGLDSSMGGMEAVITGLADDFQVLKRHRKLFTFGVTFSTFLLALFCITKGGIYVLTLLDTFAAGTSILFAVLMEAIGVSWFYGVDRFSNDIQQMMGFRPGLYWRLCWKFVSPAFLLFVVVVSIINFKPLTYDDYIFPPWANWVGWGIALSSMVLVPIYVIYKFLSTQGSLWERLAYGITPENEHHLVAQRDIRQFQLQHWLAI
T1 sequence (P31645 whole entry): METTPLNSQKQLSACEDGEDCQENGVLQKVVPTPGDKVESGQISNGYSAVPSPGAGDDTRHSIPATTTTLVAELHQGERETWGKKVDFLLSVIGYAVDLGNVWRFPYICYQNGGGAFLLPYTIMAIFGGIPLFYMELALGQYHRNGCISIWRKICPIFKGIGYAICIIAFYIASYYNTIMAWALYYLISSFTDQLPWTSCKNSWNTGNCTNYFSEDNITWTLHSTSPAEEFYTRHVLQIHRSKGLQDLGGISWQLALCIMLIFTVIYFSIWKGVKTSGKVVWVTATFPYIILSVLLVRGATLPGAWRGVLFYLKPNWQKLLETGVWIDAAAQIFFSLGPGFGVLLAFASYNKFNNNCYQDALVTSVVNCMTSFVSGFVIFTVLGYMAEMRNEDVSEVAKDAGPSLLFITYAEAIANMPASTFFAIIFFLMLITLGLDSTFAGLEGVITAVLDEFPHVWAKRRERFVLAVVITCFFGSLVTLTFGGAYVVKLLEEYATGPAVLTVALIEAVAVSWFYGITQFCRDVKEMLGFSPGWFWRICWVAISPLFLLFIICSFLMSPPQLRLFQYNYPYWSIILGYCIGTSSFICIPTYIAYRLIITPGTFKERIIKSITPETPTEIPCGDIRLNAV
Chain of Sodium-dependent dopamine transporter (Q01959 whole entry): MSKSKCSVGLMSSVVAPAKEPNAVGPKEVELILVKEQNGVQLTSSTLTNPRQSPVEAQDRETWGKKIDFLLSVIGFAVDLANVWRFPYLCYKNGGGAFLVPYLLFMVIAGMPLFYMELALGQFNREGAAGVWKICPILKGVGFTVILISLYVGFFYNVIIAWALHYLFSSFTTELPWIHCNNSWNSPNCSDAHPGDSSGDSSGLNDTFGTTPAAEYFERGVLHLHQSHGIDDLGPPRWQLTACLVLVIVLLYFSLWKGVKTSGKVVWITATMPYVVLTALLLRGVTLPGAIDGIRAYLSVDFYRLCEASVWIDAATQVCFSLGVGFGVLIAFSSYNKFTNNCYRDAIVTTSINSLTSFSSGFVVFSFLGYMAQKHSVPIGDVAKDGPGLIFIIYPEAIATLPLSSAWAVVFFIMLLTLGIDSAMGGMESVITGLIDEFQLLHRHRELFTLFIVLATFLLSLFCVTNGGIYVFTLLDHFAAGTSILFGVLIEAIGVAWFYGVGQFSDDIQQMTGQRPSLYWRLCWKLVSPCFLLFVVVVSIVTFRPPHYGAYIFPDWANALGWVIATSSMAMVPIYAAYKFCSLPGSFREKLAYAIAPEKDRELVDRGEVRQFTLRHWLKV

For `Cc1cc(C(=O)C(C)NC(C)(C)C)ccc1Br` (stereo not given), the Activity in [1] was found to be 16.7%; in test [2], 66.9%; in test [4] it was 36%. In addition, the ED50 (in general, the dose that gives a 50% effect, or the effect in half of the subjects) in [3] was 12.6 mg/kg. Also, the “Time to peak locomotor stimulation” value in [5] was 50 min. In [6], the Time was 240 min.
As to `CC(NC(C)(C)C)C(=O)c1ccc(Br)cc1` (stereo not given), the Ki (usually a dissociation constant, usually derived from enzyme kinetics or from competition with a known ligand) in test [7] is more than 10 µM. The ED50 in [3] stood at 29.5 mg/kg. Moreover, the Activity in test [4] is given as 54%; in test [8] it was 1.7%; in [9], 16.7%; in test [10], 20%; in test [11], 0.5%. Further, the “Time to peak locomotor stimulation” value in [5] was determined as 140 min. Moreover, in test [6], the Time is 160 min.
Turning to `CC(NC(C)(C)C)C(=O)c1ccc(Cl)c(Cl)c1` (stereo not given), the IC50 (as a rule, the concentration at which inhibition is half-maximal) in test [12] is more than 10 µM. In test [3], the ED50 came to 26.9 mg/kg. In addition, the Activity in [4] was determined as 61%; in test [13] it was 16.7%; in test [14], 22.4%. Besides, the “Time to peak locomotor stimulation” value in test [5] came out at 270 min. The Time in test [6] amounted to 140 min.
On to `CC(NC(C)(C)C)C(=O)c1cc(F)cc(F)c1` (stereo not given), for which the ED50 amounted to 7.8 mg/kg in test [15], 35 mg/kg in test [3] and 41.5 mg/kg in test [41]. Further, the Activity in test [16] amounted to 0%; in test [17], 20%; in [18] it was 0%; in test [19] it was 0%; in test [20], 31%; in test [21] it was 7%. The Activity was found to be 0% in test [22]; 0% in test [23]; 0% in [24]; 33% in test [25]; 0% in [26]; 3% in test [27]. Besides, the Activity in test [28] turned out to be 4%; in [29] it was 25%; in [30] it was 0%; in test [31] it was 7%; in test [32], 67%; in [33], 58%. In addition, the Activity was 20% in test [34]; 0% in [35]; 18% in [36]; 84% in [37]; 17% in test [38]; 84% in test [4]. Besides, the Activity is reported as 0% in test [40], 0% in test [42], 16.7% in [43] and 83.3% in [44]. The Ki in test [39] and in test [7] was more than 10 µM throughout. In addition, the “Time to peak locomotor stimulation” value in [5] came to 0 min. Besides, the Time in test [6] worked out at 280 min.
For the molecule `CC(NC(C)(C)C)C(=O)c1ccc(F)c(F)c1` (stereo not given), the Ki in test [45], in [39] and in [7] was more than 10 µM each time. Further, the Activity in test [4] stood at 58%; in test [46] it was 1.7%; in test [47], 63.9%. Also, in test [5], the “Time to peak locomotor stimulation” value was determined as 10 min. Besides, in test [6], the Time was determined as 60 min.
